The values that follow are results of earlier work, collected in US20210177818A1, “Antibacterial Formulation for Treating and Prophylactic use in Bacterial, and Fungal Urinary Bladder Infections” (priority 2019, published 2021).

For this series the following is noted: in acetone, acetic acid, or ethanol.

Consider `CCCCCCCCCCCCCCCC[n+]1ccccc1` [Cetylpyridinium chloride, 1-hexa-decyl pyridinium chloride], for which the solubility entry was “insoluble”.
